Assay results taken from US20150031102A1, “METHODS AND COMPOSITIONS FOR ENHANCED PRODUCTION OF BUTANOL BY CLOSTRIDIA” (Butrolix LLC, priority 2012, published 2015).

Test system: C. acetobutylicum ATCC 824
Assay: Germination and sequential batch cultures of C. acetobutylicum ATCC 824 grown at 37° C. (growth OD600, final pH, ceric ion reactive compounds)
Assay type: cell-based, Clostridium acetobutylicum
Description: Clostridium acetobutylicum ATCC 824 and C. beijerinckii NCIMB 8052 are available from several commercial microbial culture collections including the American Type Culture Collection (ATCC), Manassas, Va., USA. The strain grown at 30 C or 37 C in YE broth, which contained, per liter: 5.0 g yeast extract, 2.5 g casamino acids, 1.0 g L-asparagine, 0.5 g cysteine·HCl, 56 mg K2HPO4, 56 mg KH2PO4, 82 mg anhydrous MgSO4, 8 mg FeSO4.H2O, 6 mg MnSO4.H2O and 10 g glucose. Alternatively, strains were grown in YEPG broth, which was identical to YE expect that K2HPO4 and KH2PO4 were increased to 145 mg/L each and glucose was increased to 60 g/L. The pH of the media was adjusted to 7.2 using 45% KOH prior to sterilization by autoclaving. Media were solidified by addition of 1.5% Bacteriological Agar, Acumedia Manufacturers, Inc., Lansing, Mich. All cultures were grown in anaerobic conditions using the AnaeroPack System, Mitsubishi Gas Chemical Co., Inc., Japan, and GasPak EZ Gas Generating Sachets, Becton, Dickinson and Co., Sparks, Md. Spore stocks were kept at room temperature on agar-solidified media and were activated by suspending spores in 0.5 mL to 1.0 mL of medium followed by heating for 10 min at 80 C before inoculation into growth medium.
Growth of bacterial cultures was measured spectrophotometrically using optical density at 600 nm and pH of cell-free culture supernatants was measured using a hand-held Shindengen ISFET pH Meter KS501, Shendengen Electric Manufacturing Co., Ltd., Bannockburn, Ill.
Total alcohols in cell-free culture supernatants were measured using a modification of a colorimetric method based on ceric ammonium nitrate (Reid and Truelove, 1952). The ceric ion reagent was prepared by adding 1.3 mL of concentrated nitric acid to 40 mL of distilled water, then 10.96 g of ceric ammonium nitrate was dissolved in the dilute nitric acid solution and the solution was brought to a final volume of 50 mL. For the assay, […] of butanol standard or culture supernatant was mixed with […] distilled water in a disposable plastic cuvette followed by addition of […] of the ceric ion reagent. The sample was mixed by inverting the cuvette six times then exactly two minutes later the optical density at 500 nm wavelength was measured. The concentration of total alcohols was determined by comparison with a standard curve prepared by using butanol diluted in distilled water.
Spores of C. acetobutylicum ATCC 824 were germinated and grown overnight at 37 C under anaerobic conditions in YEPG medium that either contained 50 nM of peptide SEQ ID NO: 143 or no added peptide. After about 24 h of growth, […] of the untreated culture was transferred (transfer 1) to each of two flasks that contained 10 mL of YEPG with either no treatment or with 50 nM peptide SEQ ID NO: 143. At the same time, 10 μL of the culture that was germinated in the presence of peptide SEQ ID NO: 143 was also transferred to 10 mL of YEPG that contained 50 nM of peptide SEQ ID NO: 143. Thereafter, […] of each culture was transferred, at the same time, every 24-48 h to 10 mL of fresh YEPG that contained the same peptide treatment or no treatment. Each culture was stopped after 72 hours if incubation and optical density, pH and ceric ion reactive chemicals were measured. Sequential batch culturing was continued through 3 transfers at which point the untreated culture and the culture that was germinated and transferred in 50 nM of peptide were still growing, while the culture that was treated with peptide after germination had stopped growing (Table 15 and FIG. 7).

[1] = 50 nM added after germination, transfer 1, 72 h culture
[2] = 50 nM added after germination, transfer 2, 72 h culture
[3] = 50 nM added after germination, transfer 3, 72 h culture
[4] = 50-50 (germinated and transferred in 50 nM), transfer 1, 72 h culture
[5] = 50-50 (germinated and transferred in 50 nM), transfer 2, 72 h culture
[6] = 50-50 (germinated and transferred in 50 nM), transfer 3, 72 h culture
[7] = 50-50 (spores germinated in 50 nM peptide), transfer 0 (germinated culture), 72 h culture

SYPGWSW [peptide SEQ ID NO: 143]
Final pH [1]: 4.4
Optical density at 600 nm [1]: 1.891
Optical density of ceric ion reactive compounds measured at 500 nm [1]: 0.116
Final pH [2]: 6.0
Optical density at 600 nm [2]: 0.011
Optical density of ceric ion reactive compounds measured at 500 nm [2]: 0.000
Final pH [3]: 5.5
Optical density at 600 nm [3]: 0.100
Optical density of ceric ion reactive compounds measured at 500 nm [3]: 0.001
Growth in sequential transfers (50 nM added after germination, untreated survived through 3 transfers): did not grow beyond the first transfer
Culture degeneration in terms of production of total alcohols (50 nM peptide treatment during germination and growth): prevented culture degeneration
Final pH [4]: 4.5
Optical density at 600 nm [4]: 1.715
Optical density of ceric ion reactive compounds measured at 500 nm [4]: 0.152
Final pH [5]: 3.8
Optical density at 600 nm [5]: 1.858
Optical density of ceric ion reactive compounds measured at 500 nm [5]: −0.063
Final pH [6]: 4.6
Optical density at 600 nm [6]: 1.485
Optical density of ceric ion reactive compounds measured at 500 nm [6]: 0.138
Final pH [7]: 4.1
Optical density at 600 nm [7]: 2.121
Optical density of ceric ion reactive compounds measured at 500 nm [7]: 0.028
